Test: not given
Details: not given

Compound | logP
N#Cc1ccc(/C=C/C(=O)c2ccccc2)cc1 | 2.93
COc1ccc(C=C2Cc3ccccc3C2=O)cc1 | 3.91
COc1ccccc1C=CC(=O)c1ccccc1 | 3.99
Cc1ccc(C=C2CCCc3ccccc3C2=O)cc1 | 5.1
O=C1C(=Cc2ccc(Cl)cc2)CCCc2ccccc21 | 5.1
COc1ccccc1C=C1Cc2ccccc2C1=O | 4.01
COc1ccc(/C=C/C(=O)c2ccccc2)cc1 | 3.67
O=C1C(=Cc2cccc([N+](=O)[O-])c2)CCCc2ccccc21 | 4.32
O=C1C(=Cc2ccccc2Cl)CCCc2ccccc21 | 5.04
COc1cccc(C=CC(=O)c2ccccc2)c1 | 3.8
CN(C)c1ccc(C=C2Cc3ccccc3C2=O)cc1 | 4.5
COc1ccc(C=C2CCc3ccccc3C2=O)cc1 | 4.32
COc1ccc(C=C2CCCc3ccccc3C2=O)cc1 | 4.72
COc1ccccc1C=C1CCc2ccccc2C1=O | 4.43
O=C1C(=Cc2cccc(F)c2)CCCc2ccccc21 | 4.6
O=C1/C(=C\c2ccccc2)CCc2ccccc21 | 4.14

Compound | logP
COc1cccc(/C=C2\CCc3ccccc3C2=O)c1 | 4.42
O=C1C(=Cc2ccccc2)CCCc2ccccc21 | 4.48
COc1cccc(C=C2Cc3ccccc3C2=O)c1 | 3.97
O=C1C(=Cc2ccc(F)cc2)CCCc2ccccc21 | 4.45
CN(C)c1ccc(/C=C/C(=O)c2ccccc2)cc1 | 4.23
COc1ccccc1C=C1CCCc2ccccc2C1=O | 4.69
CN(C)c1ccc(C=C2CCCc3ccccc3C2=O)cc1 | 5.26
O=C1/C(=C/c2ccccc2[N+](=O)[O-])CCCc2ccccc21 | 4.07
O=C1C(=Cc2ccccc2Br)CCCc2ccccc21 | 5.04
O=C1C(=Cc2ccc([N+](=O)[O-])cc2)CCCc2ccccc21 | 4.15
Cc1ccccc1C=C1CCCc2ccccc2C1=O | 4.92
CN(C)c1ccc(C=C2CCc3ccccc3C2=O)cc1 | 4.91
O=C1C(=Cc2ccc(Br)cc2)CCCc2ccccc21 | 5.22
Cc1cccc(C=C2CCCc3ccccc3C2=O)c1 | 4.98
O=C1C(=Cc2cccc(Br)c2)CCCc2ccccc21 | 5.35

Test: method code SF-AS, from Krisztina, T.; Perjesi, P.; Vámos, J. (2001). Determination of logP for biologically active chalcones and cyclic chalcone analogs by RPTLC. Journal of Planar Chromatography - Modern TLC. 14, 42-46.
Details: pH 7.4

Compound | logD
O=C(C=Cc1ccccc1)c1ccccc1 | 3.62
O=C1C(=Cc2ccccc2)Cc2ccccc21 | 3.66

— the SangsterLogP compilation
